# Source: patent publication US20060020042A1, “Memantine for the treatment of mild and mild to moderate Alzheimer's disease” (Forest Laboratories, Inc., priority 2004, published 2006)
# Legend:
# Format in all cases: in vivo, human
# [1] = test system: outpatients with mild-to-moderate Alzheimer's disease; test: NPI in randomized, double-blind, placebo-controlled study; conditions: for NPI total Difference (memantine minus placebo, LS mean): Week 24, ITT, 20 mg/day
# Experimental: In the study of the present invention, there were approximately 400 patients enrolled across 42 centers. Evaluation of primary efficacy was achieved by Alzheimer's Disease Assessment Scale-cognitive subscale (ADAS-cog) and the Clinician's Interview-Based Impression of Change including caregiver information (CIBIC-plus). Secondary efficacy was determined using Alzheimer's disease Cooperative Study-Activities of Daily Living (ADCS-ADL) and Neuropsychiatric Inventory (NPI) criteria. The NPI is a validated scale that assesses behavioral disturbances in patients with dementia (Cummings et al., Neurology. 1994; 44(12):2308-14). It provides both a total score (sum of 12 domain scores) as well as scores for each subscales (e.g., delusions, hallucinations, agitation/aggression, depression/dysphoria, anxiety, disinhibition, elation/euphoria, apathy/indifference, irritability/lability, aberrant motor activity). For each subscale, both the frequency and the severity of each behavior is measured. The NPI total score ranges from 0 (higher functioning status) to 144 (lower functioning status). The NPI is based upon responses from the caregiver. The NPI was administered at Baseline and the end of Weeks 12 and 24 (or upon early termination). The study consisted of 1-2 weeks of single-blind placebo treatment followed by 24 weeks of double-blind treatment. Results were evaluated over seven clinical visits; at initial screening, baseline, and the end of weeks 4, 8, 12, 18 and 24. This study was conducted as a fixed-dose study. All patients assigned to the memantine group received an initial dose of 5 mg per day; the dose was titrated in 5 mg weekly increments to a final dose of 20 mg/day (administered as two 5 mg tablets twice a day). Study drug was provided as blister packs containing masked study medication such that placebo and memantine tablets were visually identical, and all patients received four tablets of study medication daily (in combinations of memantine 5 mg tablets and matching placebo tablets). […] Descriptive statistics were calculated by visit. […]
# [2] = test system: brain glucose metabolism in mild-to-moderate AD subjects; test: FDG PET regional brain glucose metabolism; conditions: 24 weeks of 20 mg/day
# Experimental: Drug treatment. As stated above, patients were randomized to receive 20 mg/day (10 b.i.d.) memantine or placebo for 24 weeks. PET scans were performed for 10 (5 receiving memantine and 5 receiving placebo) patients at baseline and at the end of week 24.
# PET Scan Acquisition. Subjects were PET scanned at the University of California, Irvine Brain Imaging Center using a GE 2048-15B dedicated head scanner. Thirty slices at 6.5-mm intervals (15 in each of two sets) were obtained so as to cover the entire brain. Attenuation correction was performed by obtaining a transmission scan using a ^68Ge pin source. A thermosetting plastic facemask was used to hold the subject stationary during the 60 minutes of total image acquisition. Scans were reconstructed with a blank and a transmission scan. PET image count was used for study analyses and adjusted for intrasubject global differences using normalization (proportional scaling).
# PET Image Methodology and Analysis. Differences in regional FDG uptake were analyzed using SPM99 software (Wellcome Department of Cognitive Neurology, London, UK), implemented on the Matlab platform (MathWorks Inc., Sherborn, Mass.). Statistical parametric maps (SPMs) are spatially extended statistical processes that are constructed to test hypotheses about regionally specific effects in neuroimaging data. […]
# [3] = test system: mild-to-moderate AD subjects; test: Snodgrass picture naming activation task during PET
# Experimental: Snodgrass Picture Naming Task. […] In the present invention, all patients who were subjected to PET scanning were evaluated during imaging using the Snodgrass picture naming activation task, The use of a task during the FDG uptake was used to image increases in the hippocampus and temporal lobe. This Snodgrass Picture Naming activation task was sensitive to object naming, which is impaired in mild to moderate AD. The Snodgrass picture naming activation task and performance analysis was based, in part, on the speed of identification and articulation of the name that corresponds to a set of 260 pictures (Snodgrass and Vanderwart, J. Experimental Psychology: Human Learning and Memory 1980; 6(2): 174-215). The pictures are black-and-white line drawings executed according to a set of rules that provide consistency of pictorial representation. The pictures were standardized on four variables of central relevance to memory and cognitive processing: […]
structure (smiles),measurement,setting,value
"CC12CC3CC(C)(C1)CC(N)(C3)C2 [Memantine, 1-amino-3,5-dimethyladamantane]",individual NPI criteria significantly better than in the placebo-treated group,"[1]; LOCF, week 24",three
same,"NPI total Difference (memantine minus placebo, LS mean)","[1]; LOCF analysis, p=0.011",−3.5
same,"NPI total Difference (memantine minus placebo, LS mean)","[1]; OC analysis, p=0.143",−2.1
same,regional brain glucose metabolic activity (FDG PET) compared to baseline,"[2]; 5 patients, CNS incl. cerebral cortex, cerebellum, brainstem, p<0.025",metabolic increases
same,regional brain glucose metabolism (FDG PET) compared to baseline,[2]; isolated region of left visual cortex and left putamen,decreases in glucose metabolism
same,difference in Snodgrass performance between the two treatment groups,[3]; memantine vs placebo,no significant difference
same,Snodgrass picture naming activation task performance,[3]; memantine-treated subjects during PET,better than chance
